Laboratory results reported in article PMC12858405, “Ideal efficacy photoswitching for chromocontrol of TRPC4/5 channel functions in live tissues” (Nature Chemical Biology, 2026).

Experiments:
[1] = tested on: Th+ neurons of Th-GCaMP6f-ΔTrpc5 mice; assay: GCaMP6f Ca2+ imaging of Th+ neurons in arcuate nucleus brain slices with 355 nm photoswitching, Th-GCaMP6f-ΔTrpc5 (5ko) mice
From the text: slices through the ARC of mice expressing the Ca2+ indicator GCaMP6f in Th+ neurons (Fig. 4),
we investigated (1) whether Ca2+ responses at endogenous TRPC5 expression levels can be
TRPC5 expression using TRPC5-deficient brain slices, (3) whether a dose dependence could be
detected, and (4) whether there are properties in channel activity that can be distinguished between
concentration-response measurements (Fig. 5d).

[2] = tested on: mouse small intestine segments; assay: Spontaneous motility of atropine-paralysed intestinal segments, video imaging with 365/447 nm
From the text: Müller, Niemeyer, et al., Schaefer & Thorn-Seshold 2025: Ideal Efficacy Photoswitching of TRPC4/5 in Tissue 7 Spontaneous motility and isometric contractility (Fig. 6)
(§1) After sacrificing mice in accordance to the European (Council Directive 2010/63/EU) and German guidelines for the welfare of experimental animals, the abdomen was opened, and intestinal loops were mobilised. Ileal segments were obtained starting 10 mm from the ileocoecal junction. Ileal segments with a length of 3 mm for myography experiments or with a length of 8-12 mm for observation of spontaneous movement were cut out and flushed with carbogen-equilibrated KBRS.
The adventitial layer was carefully peeled off, using a pair of forceps. […]
Spontaneous motility: for macroscopic observation, ileal segments were placed in KBRS-filled 24-well plates, and treated with 300 nM atropine (which has long been known to override the inherent oscillatory bias of the gut nerve system to paralyse digestion) or its solvent. […] A time-lapse movie was recorded, and 365 nm or 447 nm LED were electronically switched to induce photoswitching. The recorded image stack was cut into substacks, covering a single well, each. The temporal variance of the shadow cast by the segments was calculated for consecutive 1 s bins and taken as a measure to obtain the temporal signature of the motility. […]

[3] = tested on: mouse ileal or jejuneal segments; assay: Myographic isometric contractility of intestinal segments during photoswitching
From the text: Basal tension was then restored under 447-nm light and 365/447-nm cycling could be repeated many times (Fig. 6e). […]
7 Spontaneous motility and isometric contractility (Fig. 6)
as §1
The adventitial layer was carefully peeled off, using a pair of forceps. The remaining intestinal segments, comprising mucosal, submucosal and muscular layers were placed in carbogen-saturated KBRS and immediately used for the experiments. Throughout these experiments, "wild-type" mice have the same genetic background as the knockout mice. For myography experiments, intestinal segments were prepared from mice at the age of 4-7 months. Wild-type control mice were matched in age to the respective knock-out animals.
Mice were housed in groups of two to three animals under the approved standard conditions including a 12 h light-dark-regime and access to food and water ad libitum (see above). Strains for testing intestinal contractility were C57BL6/N mice (from Charles River) and homozygous TRPC5 or TRPC4 single knockout mice,80 both back-crossed on the C57BL6/N background for at least five generations. All mice were of male sex. […]
Myographic isometric contractility: The contractile forces exerted by the circular layer of intestinal segments were quantitatively assessed by measurement in a 4-channel calibrated multi myograph device (DMT 620M, Danish Myo Technology, Hinnerup, Denmark), with digital data acquisition controlled by Labchart software (Version v8; ADINSTRUMENTS). Heated (37°C) bath chambers were filled with carbogen-equilibrated KBRS, and typically 3-mm ileal segments were manoeuvred over custom-made u-shaped hooks that prevented the mucosal layer from prolapsing on the edges. A pre-tension of typically 1.5-2 mN/mm was applied, and ileal segments were allowed […]
solvent (0.5% DMSO). After renewing the pre-tension, the recording of isometric contractions was started, while applying alternating illuminations typically at 365 nm and 447 nm, or else at 385 nm and 470 nm, (typically 10 s exposure each) over typically 9-11 cycles, with no additional illumination […]
segments (N/m) (Fig. 6d-h, Supplementary Fig. 23c-g).
7.1.1 First Saturate with Ligand, Then Dial the Wavelength
Even in the usually tricky situation that a targeted biological effect only occurs when a protein target is partially but not fully stimulated (here: physiology-like contractility as in Fig. 6e, with the overlay of the normal oscillatory frequncy), ideal efficacy switches are still perfectly capable of addressing them robustly. What is possible in the rare case that only fixed operating wavelengths may be available [e.g. in Fig. 6ef, if only 365 nm and 447 nm would be available], would be to use a sub-

heteromeric TRPC5:TRPC1 = molecular target: T1, heteromeric TRPC5:TRPC1 (Homo sapiens, UniProt Q9UL62); parameters: method as in earlier work; details: supplement cites it as ref 8; cited from earlier work
T1 construct: expressed in transfected cells; host or cells: HEK293, transiently transfected
T1 sequence (Q9UL62 whole entry): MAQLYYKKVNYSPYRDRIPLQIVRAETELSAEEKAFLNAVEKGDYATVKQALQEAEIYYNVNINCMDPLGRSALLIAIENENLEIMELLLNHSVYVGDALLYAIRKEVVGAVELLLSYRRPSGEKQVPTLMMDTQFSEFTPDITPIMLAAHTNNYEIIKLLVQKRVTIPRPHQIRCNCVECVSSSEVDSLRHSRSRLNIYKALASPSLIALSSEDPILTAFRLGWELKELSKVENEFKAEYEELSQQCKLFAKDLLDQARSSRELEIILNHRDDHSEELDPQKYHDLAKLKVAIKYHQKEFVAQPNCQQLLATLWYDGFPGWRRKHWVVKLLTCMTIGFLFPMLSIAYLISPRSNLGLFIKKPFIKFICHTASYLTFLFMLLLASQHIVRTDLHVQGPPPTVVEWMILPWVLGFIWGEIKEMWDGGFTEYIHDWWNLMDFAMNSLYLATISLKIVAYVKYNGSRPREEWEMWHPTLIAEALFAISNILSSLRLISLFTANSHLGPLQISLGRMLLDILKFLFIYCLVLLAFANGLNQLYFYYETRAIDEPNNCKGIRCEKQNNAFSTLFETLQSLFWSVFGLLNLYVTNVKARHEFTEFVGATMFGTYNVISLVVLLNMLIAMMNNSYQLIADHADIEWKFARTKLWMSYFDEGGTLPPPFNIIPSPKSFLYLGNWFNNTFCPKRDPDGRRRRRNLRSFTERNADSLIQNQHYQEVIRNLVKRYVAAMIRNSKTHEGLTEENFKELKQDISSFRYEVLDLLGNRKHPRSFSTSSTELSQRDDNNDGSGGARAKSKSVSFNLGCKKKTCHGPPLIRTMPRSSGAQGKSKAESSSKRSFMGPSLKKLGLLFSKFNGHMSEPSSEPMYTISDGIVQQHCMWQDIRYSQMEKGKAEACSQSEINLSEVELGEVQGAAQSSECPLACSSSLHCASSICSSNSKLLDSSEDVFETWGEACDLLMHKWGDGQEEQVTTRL
T1 sequence (P48995 whole entry partner): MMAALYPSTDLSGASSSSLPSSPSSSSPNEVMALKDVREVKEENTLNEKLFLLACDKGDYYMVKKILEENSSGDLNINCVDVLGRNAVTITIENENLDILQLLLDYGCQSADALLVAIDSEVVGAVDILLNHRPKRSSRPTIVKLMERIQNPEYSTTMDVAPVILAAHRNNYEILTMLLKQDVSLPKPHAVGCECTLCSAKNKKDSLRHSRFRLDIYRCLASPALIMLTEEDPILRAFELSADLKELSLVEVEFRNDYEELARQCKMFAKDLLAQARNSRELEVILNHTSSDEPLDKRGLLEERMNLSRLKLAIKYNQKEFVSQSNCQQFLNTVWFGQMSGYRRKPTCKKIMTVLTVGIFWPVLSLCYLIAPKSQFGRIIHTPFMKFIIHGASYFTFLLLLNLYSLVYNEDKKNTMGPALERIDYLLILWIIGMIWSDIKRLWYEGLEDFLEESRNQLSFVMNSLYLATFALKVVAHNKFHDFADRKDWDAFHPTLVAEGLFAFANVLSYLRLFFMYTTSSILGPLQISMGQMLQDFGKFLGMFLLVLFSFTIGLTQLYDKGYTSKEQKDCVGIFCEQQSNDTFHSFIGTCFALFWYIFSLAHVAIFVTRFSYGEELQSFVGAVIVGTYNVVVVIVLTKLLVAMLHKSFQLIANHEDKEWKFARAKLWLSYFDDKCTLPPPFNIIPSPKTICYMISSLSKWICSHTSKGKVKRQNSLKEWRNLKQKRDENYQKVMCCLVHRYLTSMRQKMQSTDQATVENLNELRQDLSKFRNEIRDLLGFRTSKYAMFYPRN

SMILES: Cn1c(=O)n(CCCO)c(=O)c2c1nc(Oc1ccc(N=Nc3ccccc3)c(Cl)c1)n2Cc1ccc(Cl)cc1 [AzHC]
- Ca2+ photoresponse in TRPC5-knockout slices ([1]; 500 nM, 355 nm pulse): did not respond
- Change in spontaneous Ca2+ activity in TRPC5-deficient Th+ neurons vs before UV ([1]; 1 µM): no change

SMILES: Cn1c(=O)n(CCCO)c(=O)c2c1nc(Oc1ccc(N=Nc3ccccc3)c(OC(F)(F)F)c1)n2Cc1ccc(Cl)cc1 [AzPico]
- Response of atropine-paralysed small intestine segments to UV illumination ([2]; 10 nM, 300 nM atropine, stopped by 447 nm): initiated vigorous motions
- Photoresponse of colon segments ([2]; treated colon segments): no photoresponse
- Response of segments of TRPC4-deficient mice ([3]; 3 nM, 365/447 nm): never responded
- Increase of oscillatory forces under 365 nm ([3]; 3 nM, wild-type segments): 1.9 ×
- Time to recovery of oscillatory contractions under 447 nm ([3]; 30 nM, after 365 nm rictus-like state): 10 to 30 s
- Effect of 365 nm at moderate to high concentration ([3]; 30 nM, 365 nm): rictus-like intestinal tensioning and rundown
- Photoswitchability after medium replacement ([3]; 300 nM preincubated 2 h, then washed 2 h, 385/470 nm): remain perfectly photoreversibly operable
- Effect of 385 nm at saturating concentration ([3]; 300 nM, 385 nm): only partial channel activation
- Tonic and oscillatory force photoresponses in TRPC5-deficient mice vs matched control mice ([3]; 365/447 nm): indistinguishable

SMILES: Cn1c(=O)n(CCCO)c(=O)c2c1nc(Oc1ccc(Cl)c(OC(F)(F)F)c1)n2Cc1ccc(Cl)cc1 [AM237, reference compound]
- Activation of heteromeric TRPC1:TRPC5 (heteromeric TRPC5:TRPC1): does not activate
